Experimental findings from patent US11530220B2, “Substituted imidazo[1,5-a]pyrazines and [1,2,4]triazolo[4,3-a]pyrazines for the modulation of AhR” (IDEAYA BIOSCIENCES, INC., priority 2018, dated 2022) are described below.

The test has as its target T1, hAhR (Homo sapiens, UniProt P35869).
T1 construct: Stably integrated DRE-luciferase cell lines were generated by transducing the both cell lines with Cignal XRE luciferase reporter (Qiagen) lentiviral particles; endogenous in cells; host or cells: HEPG2 (human hepatoma) with stably integrated XRE/DRE-luciferase reporter
T1 sequence (P35869 11-848): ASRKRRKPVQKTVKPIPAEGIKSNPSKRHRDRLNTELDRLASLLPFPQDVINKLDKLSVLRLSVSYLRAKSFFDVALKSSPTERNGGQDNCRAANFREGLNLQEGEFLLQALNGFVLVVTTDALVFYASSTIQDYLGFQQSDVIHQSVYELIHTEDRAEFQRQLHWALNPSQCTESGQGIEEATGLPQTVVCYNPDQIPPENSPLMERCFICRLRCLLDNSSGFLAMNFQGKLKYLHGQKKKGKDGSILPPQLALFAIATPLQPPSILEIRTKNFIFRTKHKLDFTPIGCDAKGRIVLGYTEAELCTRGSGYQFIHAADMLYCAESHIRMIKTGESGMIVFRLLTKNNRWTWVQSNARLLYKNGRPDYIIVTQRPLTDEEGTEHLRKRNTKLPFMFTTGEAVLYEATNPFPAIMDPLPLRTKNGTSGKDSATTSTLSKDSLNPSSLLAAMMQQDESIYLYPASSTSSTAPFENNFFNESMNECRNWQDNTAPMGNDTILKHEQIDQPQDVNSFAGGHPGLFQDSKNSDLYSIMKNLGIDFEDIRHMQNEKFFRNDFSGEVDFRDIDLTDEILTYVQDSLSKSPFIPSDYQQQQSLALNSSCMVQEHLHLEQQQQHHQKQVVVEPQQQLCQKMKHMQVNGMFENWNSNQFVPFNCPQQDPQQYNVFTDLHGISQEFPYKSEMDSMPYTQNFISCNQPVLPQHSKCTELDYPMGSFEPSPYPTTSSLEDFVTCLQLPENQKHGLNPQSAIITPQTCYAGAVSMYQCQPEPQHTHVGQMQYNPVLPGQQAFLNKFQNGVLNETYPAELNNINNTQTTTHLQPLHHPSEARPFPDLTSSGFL
The experiment in a line: DRE-luciferase transcriptional assay, antagonist mode, in HEPG2 DRE-Luc cells stimulated with TCDD. In kind it is cell-based. To be noted: for Emax: read-out: HEPG2 % Max Inhibition. As to the method: HEPG2 and HEPA1C1C7 cells were maintained in MEM and αMEM without nucleosides supplemented with 10% heat inactivated FBS respectively. Stably integrated DRE-luciferase cell lines were generated by transducing the both cell lines with Cignal XRE luciferase reporter (Qiagen) lentiviral particles according to the manufacturer protocol. For both cell lines stably integrated reporter cell lines were selected for the presence of 2 μg/mL puromycin. Following selection of stably integrated cell line pools, clonal cell lines were isolated by limiting dilution in 96-well plates. Transcriptional assays were performed by seeding 100 μL of cells at a density of 250,000 or 100,000 cells/mL, for HEPG2 and HEPA1C1C7 DRE-Luc cells respectively, into 96-well cell culture plates in OptiMEM supplemented with 0.5% heat inactivated FBS and allowed to attach overnight. For antagonist assays, the compounds were added in a semi-log dose response using a D300e Digital Dispenser (Tecan) followed normalization with vehicle (DMSO). Immediately following compound addition […] of 2,3,7,8-Tetrachlorodibenzo-p-dioxin (TCDD) was added to the cells to a final concentration of 3 nM or 0.3 nM for the HEPG2 and HEPA1C1C7 DRE-Luc cells respectively. Following 24 h incubation the medium was removed and the cells were lysed in 25 μL of Reporter Lysis Buffer (Promega). Firefly luciferase activity was measured immediately following the addition of 50 μL Luciferase Assay Reagent (Promega). The percent maximal activity for each point was determined using the following equation: 100−(RLUsample−RLUvehicle−TCDD)/(RLUvehicle+TCDD RLUvehicle−TCDD)*100. The relative IC50, defined as the compound concentration required to reduce the TCDD induced response between the top and bottom plateau of each individual dose response curve by half, for each compound was determined using Prism 7 (GraphPad Software).

[1] abbreviates: HEPG2 DRE-Luc cells, 3 nM TCDD, 24 h incubation.
Where [2] appears, read: HEPG2 DRE-Luc cells, 3 nM TCDD, 24 h incubation, relative IC50, read-out: IC50 hAhR (antagonist mode).

Read-outs that look alike come from different tables or passages of the source. Some results are limits rather than exact numbers.

What is called IC50 is the point on the concentration scale where inhibition reaches its midpoint.

For `Cc1cncc(-c2cn3c(C(C)C)cnc3c(NCCc3ccc(O)cc3)n2)c1` [Example 5], the Emax under setting [1] came out at 65%. Further, the concentration for half-maximal inhibition (IC50) under setting [2] lay within 500 to 1000 nM.

With `Cc1nccn1-c1cn2c(C(C)C)cnc2c(NCCc2c[nH]c3ncccc23)n1` [Example 16, [3-isopropyl-6-(2-methylimidazolyl)(4-hydroimidazo[1,2-a]pyrazin-8-yl)](2-pyrrolo[2,3-b]pyridin-3-ylethyl)amine], under setting [1], the Emax is 83%. Also, the IC50 under setting [2] lay in the range of 1000 to 10000 nM.

`CC(C)c1cnc2c(NCc3cccc4[nH]ccc34)nc(-c3cncc(F)c3)cn12` [Example 28]: the Emax under setting [1] turned out to be 33%. The IC50 under setting [2] was 500 to 1000 nM.

For `CC(C)c1cnc2c(NCCn3ccc4ccccc43)nc(-c3cncc(F)c3)cn12` [Example 29], the IC50 lay in the range of 500 to 1000 nM. Besides, the Emax (HepG2, 24 h) came to 100%.

In the case of `Cc1nccn1-c1cn2c(C(C)C)cnc2c(NCCc2c[nH]c3cccnc23)n1` [Example 15, [3-isopropyl-6-(2-methylimidazolyl)(4-hydroimidazo[1,2-a]pyrazin-8-yl)](2-pyrrolo[3,2-b]pyridin-3-ylethyl)amine], the Emax under setting [1] worked out at 73%. The IC50 under setting [2] is 1000 to 10000 nM.

With `Cc1nccn1-c1cn2c(C(C)C)cnc2c(NCCc2c[nH]c3cc(F)cc(F)c23)n1` [Example 22, [2-(4,6-difluoroindol-3-yl)ethyl][3-isopropyl-6-(2-methylimidazolyl)(4-hydroimidazo[1,2-a]pyrazin-8-yl)]amine], under setting [1], the Emax was 100%. For the same compound, under setting [2], the IC50 is less than 200 nM.

`CC(C)c1cnc2c(NCCn3c(=O)[nH]c4ccccc43)nc(-c3cncc(F)c3)cn12` [Example 19]: under setting [1], the Emax came to 100%. The IC50 under setting [2] is less than 200 nM.
